Where two headings read alike, the source gives them in different places.
Legend:
MCF-7 cells = test: Test 1: growth inhibition of MCF-7 human breast cancer cells; assay type: cell-based; settings: read-out: GI50 (50% growth inhibition concentration)
Description: Used in the test were MCF-7 cells which were established from human breast cancer and were cultured routinely under the conditions of 37° C. and 5% CO2, in MEM medium supplemented with 10% fetal calf serum, 25 mM of HEPES and 0.1 mg/ml of kanamycin. The MCF-7 cells in a logarithmic growth phase were treated with trypsin/EDTA to prepare single cell suspension adjusted to 4.0×10^4 cells/ml in MEM medium (supplemented with 10% fetal calf serum, 25 mM of HEPES and 0.1 mg/ml of kanamycin). Test compounds were dissolved in DMSO and diluted with RPMI 1640 medium (supplemented with 10% fetal calf serum, 25 mM of HEPES and 0.1 mg/ml of kanamycin) to a concentration of 2.0×10^−4-2.0×10^−9 M.
The cell suspension was filled in a 96-wells microplate at a rate of 0.1 ml per well and was cultured for 24 hours so as to make the cells adhered to the microplate. Then, it was added with 0.1 ml of the sample solution and cultured at 37° C. for 72 hours in 5% CO2.
50% Growth inhibition concentrations (GI50 μM) were calculated from growth inhibitions at various sample concentrations.

[1] = Homo sapiens, MCF7, 72 hours culture with sample

| melting point | GI50 (MCF-7 cells; [1]) [nM] | GI50 (MCF-7 cells; 72 hours culture with sample) [nM] | Structure (SMILES) |
| --- | --- | --- | --- |
| 129 to 133 °C | – | – | C[C@@H]1OCCN(c2cc(N3CCOCC3)nc(-n3c(N)nc4ccccc43)n2)[C@@H]1C (relative stereo) [Example 2, 2-(2-aminobenzimidazol-1-yl)-4-(cis-2,3-dimethylmorpholino)-6-morpholinopyrimidine] |
| 167 to 169 °C | 110 | – | C[C@@H]1OCCN(c2cc(N3CCOCC3)nc(-n3c(C(F)F)nc4ccccc43)n2)[C@@H]1C (relative stereo) [compound 1, 2-(2-difluoromethylbenzimidazol-1-yl)-4-(cis-2,3-dimethylmorpholino)-6-morpholinopyrimidine] |
| – | 180 | – | C[C@@H]1OCCN(c2cc(N3CCOCC3)nc(-n3c(C(F)F)nc4ccccc43)n2)[C@H]1C (relative stereo) [compound 4, 2-(2-difluoromethylbenzimidazol-1-yl)-4-(trans-2,3-dimethylmorpholino)-6-morpholinopyrimidine] |
| 163 to 165 °C | 200 | – | C[C@@H]1OCCN(c2cc(N3CCOCC3)nc(-n3c(CF)nc4ccccc43)n2)[C@@H]1C (relative stereo) [compound 9, 4-(cis-2,3-dimethylmorpholino)-2-(2-fluoromethylbenzimidazol-1-yl)-6-morpholinopyrimidine] |
| 125 to 128 °C | 130 | – | C[C@@H]1OCCN(c2cc(N3CCOCC3)nc(-n3c(CO)nc4ccccc43)n2)[C@@H]1C (relative stereo) [compound 10, 4-(cis-2,3-dimethylmorpholino)-2-(2-hydroxymethylbenzimidazol-1-yl)-6-morpholinopyrimidine] |
| 141 to 143 °C | 200 | – | C[C@@H]1OCCN(c2cc(N3CCCCC3)nc(-n3c(CO)nc4ccccc43)n2)[C@@H]1C (relative stereo) [compound 11, 4-(cis-2,3-dimethylmorpholino)-2-(2-hydroxymethylbenzimidazol-1-yl)-6-piperidinopyrimidine] |
| 104 to 108 °C | 390 | – | C[C@@H]1OCCN(c2cc(N3CCCC3CO)nc(-n3c(CO)nc4ccccc43)n2)[C@@H]1C (relative stereo) [compound 12, 4-(cis-2,3-dimethylmorpholino)-2-(2-hydroxymethylbenzimidazol-1-yl)-6-(2-hydroxymethylpyrrolidin-1-yl)pyrimidine] |
| 207 to 210 °C | – | – | C[C@@H]1OCCN(c2nc(N3CCOCC3)nc(-n3c(C(F)F)nc4ccccc43)n2)[C@@H]1C (relative stereo) [compound 13, 2-(2-difluoromethylbenzimidazol-1-yl)-4-(cis-2,3-dimethylmorpholino)-6-morpholino-1,3,5-triazine] |
| – | 180 | – | C[C@@H]1CO[C@@H](C)CN1c1nc(N2CCOCC2)nc(-n2c(C(F)F)nc3ccccc32)n1 (relative stereo) [compound 18, 2-(2-difluoromethylbenzimidazol-1-yl)-4-(trans-2,5-dimethylmorpholino)-6-morpholino-1,3,5-triazine] |
| 150 to 153 °C | 190 | – | CC(=O)Nc1nc2ccccc2n1-c1nc(N2CCOCC2)cc(N2CCO[C@@H](C)[C@@H]2C)n1 (relative stereo) [compound 23, 2-(2-acetylaminobenzimidazol-1-yl)-4-(trans-2,3-dimethylmorpholino)-6-morpholinopyrimidine] |
| – | 190 | – | CCC(=O)Nc1nc2ccccc2n1-c1nc(N2CCOCC2)nc(N2CCO[C@@H](C)[C@@H]2C)n1 (relative stereo) [compound 25, 2-(2-propionylaminobenzimidazol-1-yl)-4-(trans-2,3-dimethylmorpholino)-6-morpholino-1,3,5-triazine] |
| – | < 40 | – | C[C@@H]1OCCN(c2nc(N3CCOCC3)nc(-n3c(NC=O)nc4ccccc43)n2)[C@H]1C (relative stereo) [compound 26, 2-(trans-2,3-dimethylmorpholino)-4-(2-formylaminobenzimidazol-1-yl)-6-morpholino-1,3,5-triazine] |
| 143 to 146 °C | 160 | – | C[C@@H]1OCCN(c2cc(N3CCOCC3)nc(-n3c(NC=O)nc4ccccc43)n2)[C@H]1C (relative stereo) [compound 27, 4-(trans-2,3-dimethylmorpholino)-2-(2-formylaminobenzimidazol-1-yl)-6-morpholinopyrimidine] |
| 151 to 155 °C | 250 | – | C[C@@H]1OCCN(c2cc(N3CCOCC3)nc(-n3c(N)nc4ccccc43)n2)[C@@H]1C.Cl (relative stereo) [compound 30, 2-(2-aminobenzimidazol-1-yl)-4-(cis-2,3-dimethylmorpholino)-6-morpholinopyrimidine hydrochloride] |
| 155 to 158 °C (dec.) | 290 | – | C[C@@H]1OCCN(c2cc(N3CCOCC3)nc(-n3c(C(F)F)nc4ccc(N)cc43)n2)[C@@H]1C (relative stereo) [compound 36, 2-(6-amino-2-difluoromethylbenzimidazol-1-yl)-4-(2,3-cis-dimethylmorpholino)-6-morpholinopyrimidine] |
| 170 to 175 °C (dec.) | 90 | – | C[C@@H]1OCCN(c2nc(N3CCOCC3)nc(-n3c(C(F)F)nc4cc(O)ccc43)n2)[C@@H]1C (relative stereo) [compound 37, 2-(2-difluoromethyl-5-hydroxybenzimidazol-1-yl)-4-(2,3-cis-dimethylmorpholino)-6-morpholino-1,3,5-triazine] |
| – | 2200 | – | C[C@@H]1OCCN(c2cc(N3CCOCC3)nc(-n3cnc4ccccc43)n2)[C@H]1C (relative stereo) [compound A, 2-(benzimidazol-1-yl)-4-(trans-2,3-dimethylmorpholino)-6-morpholinopyrimidine] |
| 201 to 202 °C | 210 | – | FC(F)c1nc2ccccc2n1-c1nc(N2CCOCC2)cc(N2CCOCC2)n1 [compound 2, 2-(2-difluoromethylbenzimidazol-1-yl)-4,6-dimorpholinopyrimidine] |
| 173 to 175 °C | 380 | – | FC(F)c1nc2ccccc2n1-c1nc(N2CCOCC2)cc(N2CCSCC2)n1 [compound 3, 2-(2-difluoromethylbenzimidazol-1-yl)-4-morpholino-6-thiomorpholinopyrimidine] |
| 149 to 152 °C | 220 | – | CC1(C)CN(c2cc(N3CCOCC3)nc(-n3c(C(F)F)nc4ccccc43)n2)CCO1 [compound 5, 2-(2-difluoromethylbenzimidazol-1-yl)-4-(2,2-dimethylmorpholino)-6-morpholinopyrimidine] |
| – | 290 | – | CC1CN(c2cc(N3CCOCC3)nc(-n3c(C(F)F)nc4ccccc43)n2)CCO1 (stereo not shown) [compound 6, 2-(2-difluoromethylbenzimidazol-1-yl)-4-(2-methylmorpholino)-6-morpholinopyrimidine] |
| 113 to 116 °C | 320 | – | C[C@H]1COC(C)(C)CN1c1cc(N2CCOCC2)nc(-n2c(C(F)F)nc3ccccc32)n1 [compound 8, 2-(2-difluoromethylbenzimidazol-1-yl)-4-morpholino-6-[2,2,5(S)-trimethylmorpholino]pyrimidine] |
| 176 to 178 °C | 130 | – | CC1(C)CN(c2nc(N3CCOCC3)nc(-n3c(C(F)F)nc4ccccc43)n2)CCO1 [compound 15, 2-(2-difluoromethylbenzimidazol-1-yl)-4-(2,2-dimethylmorpholino)-6-morpholino-1,3,5-triazine] |
| – | 350 | – | FC(F)c1nc2ccccc2n1-c1nc(N2CCOCC2)nc(N2CCSCC2)n1 [compound 16, 2-(2-difluoromethylbenzimidazol-1-yl)-4-morpholino-6-thiomorpholino-1,3,5-triazine] |
| 188 to 191 °C | 120 | – | CC1CN(c2nc(N3CCOCC3)nc(-n3c(C(F)F)nc4ccccc43)n2)CCO1 (stereo not shown) [compound 17, 2-(2-difluoromethylbenzimidazol-1-yl)-4-(2-methylmorpholino)-6-morpholino-1,3,5-triazine] |
| – | – | 340 | [O-][S+]1CCN(c2nc(N3CCOCC3)nc(-n3c(C(F)F)nc4ccccc43)n2)CC1 [compound 21, 2-(2-difluoromethylbenzimidazol-1-yl)-4-morpholino-6-(tetrahydro-1,4-thiazin-1-oxo-4-yl)-1,3,5-triazine] |
| 242 to 244 °C | – | – | C[C@@H]1CN(c2nc(N3CCOCC3)nc(-n3c(NC=O)nc4ccccc43)n2)C[C@H](C)O1 [compound 28, 2-(cis-2,6-dimethylmorpholino)-4-(2-formylaminobenzimidazol-1-yl)-6-morpholino-1,3,5-triazine] |
| – | 3700 | – | Cc1nc2ccccc2n1-c1nc(N2CCOCC2)nc(N2CCOCC2)n1 [compound B, 2-(2-methylbenzimidazol-1-yl)-4,6-dimorpholino-1,3,5-triazine, reference compound] |
| – | 20000 | – | c1cn(-c2nc(N3CCOCC3)nc(N3CCOCC3)n2)cn1 [compound C, 2-(imidazol-1-yl)-4,6-dimorpholino-1,3,5-triazine, reference compound] |
| – | > 100000 | – | CN(C)c1nc(N(C)C)nc(N(C)C)n1 [compound D, hexamethylmelamine, reference compound] |

Source: US7307077B2, “Heterocyclic compound and antitumor agent containing the same as effective ingredient” (Zenyaku Kogyo Kabushiki Kaisha, priority 2001, dated 2007)
